Legend:
[1] = cited from earlier work
[2] = Abiraterone acetate stability with and without milling, total impurities by HPLC; assay type: physicochemical; conditions: 80° C., 4 hrs
Text: The impurity growth in the DPI and tablets containing fine particle abiraterone acetate is due to oxidative degradation of abiraterone acetate. […] The faster degradation in tablets containing fine particle abiraterone acetate could arise from a number of sources, including, but not limited to: greater surface area of the API, higher proportion of excipient relative to the API, and differences in excipients.

## CC(=O)O[C@H]1CC[C@@]2(C)C(=CC[C@@H]3[C@@H]2CC[C@]2(C)C(c4cccnc4)=CC[C@@H]32)C1 [Abiraterone Acetate (API), 17-(3-Pyridyl) androsta-5, acetate]
[1]
  water solubility: poorly water soluble
[2]; Milling none
  Total impurities by HPLC: 0.23 % AUC
[2]; SPEX shaker mill
  Total impurities by HPLC: 0.17 % AUC

— US9889144B2, “Abiraterone acetate formulation and methods of use” (iCeutica Inc., priority 2013, dated 2018)
